According to patent US20250115620A1, “BRIDGED TRICYCLIC CARBAMOYLPYRIDONE COMPOUNDS AND USES THEREOF” (Gilead Sciences, Inc., priority 2022, published 2025):
Like-named read-outs stand apart in the source and are kept apart here.

Tests used:
[1] = system: HIV-1 (IIIB); assay: microbe, parasite or virus in culture; assay type: cell-based; details: Human immunodeficiency virus 1, IIIB, MT4, 120 h, read-out: MT4 EC50
[2] = system: pLAI reporter virus; assay: microbe, parasite or virus in culture; assay type: cell-based, HIV; details: Human immunodeficiency virus 1, MT4, 72 h
[3] = in vitro; details: human; for CC50 at 5 days: uninfected MT-4 cells
[4] = HIV-1 (IIIB) in MT-4 cells, 5 days incubation, Cell Titer Glo

In the case of `CC1=NO[C@@]2(CC[C@H](C)N3C[C@H]2n2cc(C(=O)NCc4c(F)cc(F)cc4F)c(=O)c(O)c2C3=O)[C@H]1O` [Example 31, (3′S,4S,5R,7′R)-4,12′-dihydroxy-3,3′-dimethyl-1′,11′-dioxo-N-(2,4,6-trifluorobenzyl)-1′,4′,5′,11′-tetrahydro-3′H,4H,7′H-spiro[isoxazole-5,6′-[2,7]methanopyrido[1,2-a][1,4]diazonine]-10′-carboxamide], the EC50 [1, 4] is reported as 1.4 nM, the EC50 ([2]; read-out: RLUC 50% HS EC50) is reported as 47.2 nM and the EC50 ([2]; read-out: RLUC CCM EC50) is reported as 0.3 nM. For the same compound, the CC50 at 5 days [3] was 30000 nM.

In the case of `C[C@H]1CC[C@@]2(CCO2)[C@H]2CN1C(=O)c1c(O)c(=O)c(C(=O)NCc3c(F)cc(F)cc3F)cn12` [Example 55, (2R,3′S,7′R)-12′-hydroxy-3′-methyl-1′,11′-dioxo-N-(2,4,6-trifluorobenzyl)-1′,4′,5′,11′-tetrahydro-3′H,7′H-spiro[oxetane-2,6′-[2,7]methanopyrido[1,2-a][1,4]diazonine]-10′-carboxamide], the EC50 [1, 4] is reported as 1.7 nM, the EC50 ([2]; read-out: RLUC 50% HS EC50) is reported as 51 nM and the EC50 ([2]; read-out: RLUC CCM EC50) is reported as 1.1 nM. For the same compound, the CC50 at 5 days [3] was ≥ 50000 nM.

Work on `COCCOC1=NO[C@@]2(CC[C@H](C)N3C[C@H]2n2cc(C(=O)NCc4ccc(F)cc4F)c(=O)c(O)c2C3=O)C1` [Example 41, (3′S,5S,7′R)—N-(2,4-difluorobenzyl)-12′-hydroxy-3-(2-methoxyethoxy)-3′-methyl-1′,11′-dioxo-1′,4′,5′,11′-tetrahydro-3′H,4H,7′H-spiro[isoxazole-5,6′-[2,7]methanopyrido[1,2-a][1,4]diazonine]-10′-carboxamide] yielded an EC50 [1, 4] of 0.6 nM, an EC50 ([2]; read-out: RLUC 50% HS EC50) of 0.5 nM and an EC50 ([2]; read-out: RLUC CCM EC50) of 0.4 nM. The CC50 at 5 days [3] was 21500 nM.

For `C[C@H]1CC[C@]2(CC(n3cnnc3)=NO2)[C@H]2CN1C(=O)c1c(O)c(=O)c(C(=O)NCc3c(F)cc(F)cc3F)cn12` [Example 76, (3′S,5S,7′R)-12′-hydroxy-3′-methyl-1′,11′-dioxo-3-(4H-1,2,4-triazol-4-yl)-N-(2,4,6-trifluorobenzyl)-1′,4′,5′,11′-tetrahydro-3′H,4H,7′H-spiro[isoxazole-5,6′-[2,7]methanopyrido[1,2-a][1,4]diazonine]-10′-carboxamide], the EC50 [1, 4] was 2.2 nM, the EC50 ([2]; read-out: RLUC 50% HS EC50) was 3.3 nM and the EC50 ([2]; read-out: RLUC CCM EC50) was 0.4 nM. For the same compound, the CC50 at 5 days [3] was 10100 nM.

For `C[C@H]1CC[C@]2(CC(=O)N(Cc3ccc4ncsc4c3)O2)[C@H]2CN1C(=O)c1c(O)c(=O)c(C(=O)NCc3c(F)cc(F)cc3F)cn12` [Example 112, (3′S,5S,7′R)-2-(benzo[d]thiazol-6-ylmethyl)-12′-hydroxy-3′-methyl-1′,3,11′-trioxo-N-(2,4,6-trifluorobenzyl)-1′,4′,5′,11′-tetrahydro-3′H,7′H-spiro[isoxazolidine-5,6′-[2,7]methanopyrido[1,2-a][1,4]diazonine]-10′-carboxamide], the EC50 [1, 4] was 0.7 nM, the EC50 ([2]; read-out: RLUC 50% HS EC50) was 0.4 nM and the EC50 ([2]; read-out: RLUC CCM EC50) was 0.2 nM. For the same compound, the CC50 at 5 days [3] was ≥ 50000 nM.

For `C[C@H]1CC[C@@]2(CNC(=O)C2)[C@H]2CN1C(=O)c1c(O)c(=O)c(C(=O)NCc3c(F)cc(F)cc3F)cn12` [Example 57, (3R,3′S, 7′S)-12′-hydroxy-3′-methyl-1′,5,11′-trioxo-N-(2,4,6-trifluorobenzyl)-1′,4′,5′,11′-tetrahydro-3′H, 7′H-spiro[pyrrolidine-3,6′-[2,7]methanopyrido[ ],2-a][1,4]diazonine-10′-carboxamide], the EC50 [1] was 27.9 nM, the EC50 ([2]; read-out: RLUC 50% HS EC50) was 6 nM and the EC50 ([2]; read-out: RLUC CCM EC50) was 13.8 nM. The CC50 [3] was ≥ 50000 nM.

For `COC1=NO[C@@]2(CCCN3C[C@H]2n2cc(C(=O)NCc4c(F)cc(F)cc4F)c(=O)c(O)c2C3=O)C1` [Example 96, (5S,7′R)-12′-hydroxy-3-methoxy-1′,11′-dioxo-N-(2,4,6-trifluorobenzyl)-1′,4′,5′,11′-tetrahydro-3′H,4H,7′H-spiro[isoxazole-5,6′-[2,7]methanopyrido[1,2-a][1,4]diazonine]-10′-carboxamide], the EC50 [1, 4] was 1.1 nM, the EC50 ([2]; read-out: RLUC 50% HS EC50) was 1.2 nM and the EC50 ([2]; read-out: RLUC CCM EC50) was 0.2 nM. The CC50 at 5 days [3] was 31400 nM.

With `C[C@@H](F)C1=NO[C@@]2(CC[C@H](C)N3C[C@H]2n2cc(C(=O)NCc4c(F)cc(F)cc4F)c(=O)c(O)c2C3=O)C1` [Example 70, (3′S,5S,7′R)-3-((R)-1-fluoroethyl)-12′-hydroxy-3′-methyl-1′,11′-dioxo-N-(2,4,6-trifluorobenzyl)-1′,4′,5′,11′-tetrahydro-3′H,4H,7′H-spiro[isoxazole-5,6′-[2,7]methanopyrido[1,2-a][1,4]diazonine]-10′-carboxamide] the EC50 [1, 4] was 1.3 nM, the EC50 ([2]; read-out: RLUC 50% HS EC50) was 176 nM and the EC50 ([2]; read-out: RLUC CCM EC50) was 0.4 nM. For the same compound, the CC50 at 5 days [3] was 26600 nM.

With `C[C@H]1CCC2(OCCO2)[C@H]2CN1C(=O)c1c(O)c(=O)c(C(=O)NCc3ccc(F)cc3F)cn12` [Example 129, (3′S,7′R)—N-(2,4-difluorobenzyl)-12′-hydroxy-3′-methyl-1′,11′-dioxo-1′,4′,5′,11′-tetrahydro-3′H,7′H-spiro[[1,3]dioxolane-2,6′-[2,7]methanopyrido[1,2-a][1,4]diazonine]-10′-carboxamide] the EC50 [1, 4] was 0.5 nM, the EC50 ([2]; read-out: RLUC 50% HS EC50) was 8 nM and the EC50 ([2]; read-out: RLUC CCM EC50) was 0.2 nM. It also gave a CC50 at 5 days [3] of 27400 nM.

Compound `CC1=NO[C@@]2(CC[C@H](C)N3C[C@H]2n2cc(C(=O)NCc4ccc(F)cc4F)c(=O)c(O)c2C3=O)N1C` [Example 149a, (3′S,5R,7′R)—N-(2,4-difluorobenzyl)-12′-hydroxy-3,3′,4-trimethyl-1′,11′-dioxo-1′,4′,5′,11′-tetrahydro-3′H,4H,7′H-spiro[[1,2,4]oxadiazole-5,6′-[2,7]methanopyrido[1,2-a][1,4]diazonine]-10′-carboxamide] has an EC50 [1, 4] of 2 nM, an EC50 ([2]; read-out: RLUC 50% HS EC50) of 4.8 nM and an EC50 ([2]; read-out: RLUC CCM EC50) of 0.8 nM. The CC50 at 5 days [3] was ≥ 50000 nM.

Work on `C[C@H]1CC[C@]2(CC(=O)N(Cc3ccc(C#N)cc3)O2)[C@H]2CN1C(=O)c1c(O)c(=O)c(C(=O)NCc3c(F)cc(F)cc3F)cn12` [Example 118, (3′S,5S,7′R)-2-(4-cyanobenzyl)-12′-hydroxy-3′-methyl-1′,3,11′-trioxo-N-(2,4,6-trifluorobenzyl)-1′,4′,5′,11′-tetrahydro-3′H,7′H-spiro[isoxazolidine-5,6′-[2,7]methanopyrido[1,2-a][1,4]diazonine]-10′-carboxamide] yielded an EC50 [1, 4] of 2.6 nM, an EC50 ([2]; read-out: RLUC 50% HS EC50) of 0.4 nM and an EC50 ([2]; read-out: RLUC CCM EC50) of 0.4 nM. The CC50 at 5 days [3] was ≥ 50000 nM.

`C[C@H]1CC[C@@]2(CC(=O)N(Cc3ccc(F)cc3)O2)[C@H]2CN1C(=O)c1c(O)c(=O)c(C(=O)NCc3c(F)cc(F)cc3F)cn12` [Example 102, (3′S,5R,7′R)-2-(4-fluorobenzyl)-12′-hydroxy-3′-methyl-1′,3,11′-trioxo-N-(2,4,6-trifluorobenzyl)-1′,4′,5′,11′-tetrahydro-3′H,7′H-spiro[isoxazolidine-5,6′-[2,7]methanopyrido[1,2-a][1,4]diazonine]-10′-carboxamide] gave an EC50 [1, 4] of 11.5 nM, an EC50 ([2]; read-out: RLUC 50% HS EC50) of 30 nM and an EC50 ([2]; read-out: RLUC CCM EC50) of 2 nM. The CC50 at 5 days [3] was 8790 nM.

With `C[C@@H]1OC[C@]2(CC[C@H](C)N3C[C@H]2n2cc(C(=O)NCc4c(F)cc(F)cc4F)c(=O)c(O)c2C3=O)O1` [Example 133, (2R,3′S,4R,7′R)-12′-hydroxy-2,3′-dimethyl-1′,11′-dioxo-N-(2,4,6-trifluorobenzyl)-1′,4′,5′,11′-tetrahydro-3′H,7′H-spiro[[1,3]dioxolane-4,6′-[2,7]methanopyrido[1,2-a][1,4]diazonine]-10′-carboxamide] the EC50 [1, 4] was 1.7 nM, the EC50 ([2]; read-out: RLUC 50% HS EC50) was 102 nM and the EC50 ([2]; read-out: RLUC CCM EC50) was 0.5 nM. The CC50 at 5 days [3] was 20200 nM.

With `CC1=NO[C@]2(CC[C@H](C)N3C[C@H]2n2cc(C(=O)NCc4ccc(F)cc4F)c(=O)c(O)c2C3=O)C1O` (stereo partly drawn) [Example 24, (3′S,5S,7′R)—N-(2,4-difluorobenzyl)-4,12′-dihydroxy-3,3′-dimethyl-1′,11′-dioxo-1′,4′,5′,11′-tetrahydro-3′H,4H,7′H-spiro[isoxazole-5,6′-[2,7]methanopyrido[1,2-a][1,4]diazonine]-10′-carboxamide] the EC50 [1, 4] was 5.9 nM, the EC50 ([2]; read-out: RLUC 50% HS EC50) was 4.9 nM and the EC50 ([2]; read-out: RLUC CCM EC50) was 2.8 nM. For the same compound, the CC50 at 5 days [3] was ≥ 50000 nM.

For `CC1=NO[C@@]2(CC[C@H](C)N3C[C@H]2n2cc(C(=O)NCc4c(F)cc(F)cc4F)c(=O)c(O)c2C3=O)[C@@H]1F` [Example 33, (3′S,4R,5R,7′R)-4-fluoro-12′-hydroxy-3,3′-dimethyl-1′,11′-dioxo-N-(2,4,6-trifluorobenzyl)-1′,4′,5′,11′-tetrahydro-3′H,4H,7′H-spiro[isoxazole-5,6′-[2,7]methanopyrido[1,2-a][1,4]diazonine]-10′-carboxamide], the EC50 [1, 4] was 0.7 nM, the EC50 ([2]; read-out: RLUC 50% HS EC50) was 342 nM and the EC50 ([2]; read-out: RLUC CCM EC50) was 0.4 nM. The CC50 at 5 days [3] was 14100 nM.

`CC1=N[C@]2(CC[C@H](C)N3C[C@H]2n2cc(C(=O)NCc4ccc(F)cc4F)c(=O)c(O)c2C3=O)ON1C` [Example 149b, (3′S,5R,7′R)—N-(2,4-difluorobenzyl)-12′-hydroxy-2,3,3′-trimethyl-1′,11′-dioxo-1′,4′,5′,11′-tetrahydro-2H,3′H,7′H-spiro[[1,2,4]oxadiazole-5,6′-[2,7]methanopyrido[1,2-a][1,4]diazonine]-10′-carboxamide] showed an EC50 [1, 4] of 1.4 nM, an EC50 ([2]; read-out: RLUC 50% HS EC50) of 5.7 nM and an EC50 ([2]; read-out: RLUC CCM EC50) of 0.4 nM. It also gave a CC50 at 5 days [3] of 39100 nM.

`COC1=NO[C@@]2(CC[C@H](CF)N3C[C@H]2n2cc(C(=O)NCc4c(F)cc(F)cc4F)c(=O)c(O)c2C3=O)C1` [Example 99, (3′R,5S,7′R)-3′-(fluoromethyl)-12′-hydroxy-3-methoxy-1′,11′-dioxo-N-(2,4,6-trifluorobenzyl)-1′,4′,5′,11′-tetrahydro-3′H,4H,7′H-spiro[isoxazole-5,6′-[2,7]methanopyrido[1,2-a][1,4]diazonine]-10′-carboxamide] gave an EC50 [1, 4] of 1.5 nM, an EC50 ([2]; read-out: RLUC 50% HS EC50) of 19.7 nM and an EC50 ([2]; read-out: RLUC CCM EC50) of 0.2 nM. It also gave a CC50 at 5 days [3] of 36500 nM.
